Data taken from the supplement of paper PMC10307832.

How the values were obtained:
Assay in all cases: relative viability (nuclei count vs DMSO), 5 days (fraction); higher = more cells survive
Metformin + Lapatinib = compound: CN(C)C(=N)NC(=N)N [Metformin] + CS(=O)(=O)CCNCc1ccc(-c2ccc3ncnc(Nc4ccc(OCc5cccc(F)c5)c(Cl)c4)c3c2)o1 [Lapatinib] (partner 2 µM)
Summary of the method: (§1)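 Dosing by pin tool came one day after lung cancer cell lines were seeded in 1536-well plates, using either one drug or a fixed anchor-drug dose plus five library-drug doses (not always all listed) in √10 steps. After 5 days, nuclei were counted on 4× images. Relative viability is treated-well nuclei count divided by vehicle-well nuclei count, and values are medians of duplicate plates.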

Apatinib + Phenformin = compound: N#CC1(c2ccc(NC(=O)c3cccnc3NCc3ccncc3)cc2)CCCC1 [Apatinib] + N=C(N)NC(=N)NCCc1ccccc1 [Phenformin] (partner 250 µM)
Summary of the method: as §1

Apatinib + Luminespib = compound: N#CC1(c2ccc(NC(=O)c3cccnc3NCc3ccncc3)cc2)CCCC1 [Apatinib] + CCNC(=O)c1noc(-c2cc(C(C)C)c(O)cc2O)c1-c1ccc(CN2CCOCC2)cc1 [Luminespib] (partner 0.01 µM)
Summary of the method: as §1

Apatinib + Palbociclib = compound: N#CC1(c2ccc(NC(=O)c3cccnc3NCc3ccncc3)cc2)CCCC1 [Apatinib] + CC(=O)c1c(C)c2cnc(Nc3ccc(N4CCNCC4)cn3)nc2n(C2CCCC2)c1=O [Palbociclib] (partner 0.5 µM)
Summary of the method: as §1

Cell Line | relative viability (Metformin + Lapatinib; first compound 10 µM) | relative viability (Metformin + Lapatinib; first compound 31.62 µM) | relative viability (Metformin + Lapatinib; first compound 100 µM) | relative viability (Metformin + Lapatinib; first compound 316.23 µM) | relative viability (Metformin + Lapatinib; first compound 1000 µM) | relative viability (Apatinib + Phenformin; first compound 0.08 µM) | relative viability (Apatinib + Phenformin; first compound 0.253 µM) | relative viability (Apatinib + Phenformin; first compound 0.8 µM) | relative viability (Apatinib + Phenformin; first compound 2.53 µM) | relative viability (Apatinib + Phenformin; first compound 8 µM) | relative viability (Apatinib + Luminespib; first compound 0.08 µM) | relative viability (Apatinib + Luminespib; first compound 0.253 µM) | relative viability (Apatinib + Luminespib; first compound 0.8 µM) | relative viability (Apatinib + Luminespib; first compound 2.53 µM) | relative viability (Apatinib + Luminespib; first compound 8 µM) | relative viability (Apatinib + Palbociclib; first compound 0.08 µM) | relative viability (Apatinib + Palbociclib; first compound 0.253 µM) | relative viability (Apatinib + Palbociclib; first compound 0.8 µM) | relative viability (Apatinib + Palbociclib; first compound 2.53 µM) | relative viability (Apatinib + Palbociclib; first compound 8 µM)
COR-L23 | 1.21 | 0.969 | 0.734 | 0.773 | 1.07 | 0.5 | 0.421 | 0.427 | 0.395 | 0.438 | 0.687 | 0.643 | 0.702 | 0.628 | 0.509 | 0.321 | 0.341 | 0.278 | 0.273 | 0.271
UMC-11 | 0.899 | 1.04 | 1.1 | 0.973 | 1.17 | 0.333 | 0.318 | 0.287 | 0.293 | 0.266 | 1.13 | 1.02 | 0.926 | 1.04 | 0.886 | 0.322 | 0.326 | 0.278 | 0.31 | 0.323
NCI-H3122 | 0.871 | 0.872 | 0.89 | 0.846 | 0.819 | 0.351 | 0.361 | 0.319 | 0.271 | 0.298 | 0.0784 | 0.0827 | 0.0738 | 0.0782 | 0.0871 | 0.186 | 0.231 | 0.191 | 0.23 | 0.228
BEN | 0.976 | 1.12 | 1.15 | 0.925 | 0.583 | 0.26 | 0.255 | 0.25 | 0.232 | 0.25 | 0.478 | 0.348 | 0.385 | 0.336 | 0.229 | 0.521 | 0.453 | 0.466 | 0.478 | 0.407
LU99A | 0.92 | 0.904 | 0.837 | 0.864 | 0.985 | 0.914 | 1.01 | 0.816 | 0.799 | 0.813 | 0.294 | 0.302 | 0.221 | 0.241 | 0.213 | 0.505 | 0.489 | 0.383 | 0.339 | 0.328
EKVX | 0.185 | 0.16 | 0.176 | 0.222 | 0.196 | 0.233 | 0.228 | 0.234 | 0.216 | 0.234 | 0.841 | 0.857 | 0.851 | 0.821 | 0.816 | 0.378 | 0.482 | 0.33 | 0.375 | 0.378
NCI-H1437 | 0.868 | 0.887 | 0.619 | 0.712 | 0.808 | 0.354 | 0.283 | 0.278 | 0.252 | 0.251 | 1.11 | 1.12 | 1.11 | 0.923 | 0.817 | 0.314 | 0.3 | 0.277 | 0.254 | 0.209
A-427 | 0.943 | 1.06 | 1.04 | 0.994 | 0.951 | 0.393 | 0.387 | 0.254 | 0.3 | 0.234 | 0.924 | 0.779 | 0.928 | 0.72 | 0.8 | 0.52 | 0.534 | 0.507 | 0.518 | 0.453
SK-LU-1 | 0.632 | 0.88 | 0.844 | 0.694 | 0.812 | 0.607 | 0.594 | 0.471 | 0.413 | 0.454 | 0.196 | 0.201 | 0.202 | 0.182 | 0.186 | 0.372 | 0.402 | 0.433 | 0.381 | 0.339
NCI-H2405 | 0.932 | 1.13 | 1.01 | 1.07 | 0.556 | 0.392 | 0.392 | 0.394 | 0.33 | 0.344 | 0.675 | 0.695 | 0.653 | 0.621 | 0.491 | 0.528 | 0.569 | 0.546 | 0.513 | 0.479
LK-2 | 1.22 | 1.19 | 1.23 | 0.878 | 0.697 | 0.485 | 0.51 | 0.467 | 0.287 | 0.258 | 0.185 | 0.178 | 0.187 | 0.209 | 0.188 | 0.762 | 0.481 | 0.758 | 0.484 | 0.356
LOU-NH91 | 0.784 | 0.775 | 0.725 | 0.755 | 0.71 | 0.651 | 0.73 | 0.631 | 0.659 | 0.665 | 0.354 | 0.363 | 0.386 | 0.356 | 0.354 | 0.549 | 0.508 | 0.526 | 0.58 | 0.531
COR-L 105 | 0.415 | 0.36 | 0.462 | 0.426 | 0.405 | 0.523 | 0.598 | 0.426 | 0.45 | 0.337 | 0.796 | 0.789 | 0.896 | 0.697 | 0.67 | 0.428 | 0.397 | 0.365 | 0.365 | 0.42
NCI-H1650 | 0.699 | 0.844 | 0.949 | 0.707 | 0.648 | – | 0.503 | 0.35 | 0.35 | 0.318 | – | 0.185 | 0.217 | 0.179 | 0.168 | 0.262 | 0.352 | 0.323 | 0.299 | 0.303
H3255 | 0.254 | 0.227 | 0.291 | 0.29 | 0.211 | 0.393 | 0.398 | 0.343 | 0.358 | 0.32 | 0.791 | 0.782 | 0.811 | 0.644 | 0.829 | 0.339 | 0.306 | 0.319 | 0.305 | 0.285
NCI-H2228 | 1.46 | 1.25 | – | 0.974 | 1.24 | 0.423 | 0.284 | 0.223 | 0.29 | 0.301 | 0.126 | 0.122 | 0.129 | 0.13 | 0.126 | 0.668 | 0.788 | 0.776 | 0.708 | 0.667
